This note sets out measurements from patent US8865623B2, “Herbicidally active cyclic diones and derivatives thereof, processes for their preparation, compositions, and method of controlling weeds” (Syngenta Limited, priority 2009, dated 2014).

What all share (assay type): in vivo
In experiment [1] the test system is Avena fatua (AVEFA). Kind of experiment: Pre-emergence herbicidal activity, glasshouse pot test. As to conditions: Avena fatua, 312 h; Rate 250 g/ha; pre-emergence spray; evaluated after 13 days; read-out: Pre-emergence activity AVEFA (100=total damage to plant; 0=no damage to plant). The procedure, abridged: (§1)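 Rating: 0 (no damage) to 100 (total damage), 13 days after application. Application: aqueous spray from a.i. in acetone/water (50:50) + 0.5% Tween 20, one day (pre) or 8 days (post) after sowing. Glasshouse: 24/16° C, 14 h light, 65% humidity.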

Experiment [2] has as its system Echinochloa crus-galli (ECHCG). The description is as above. The note with it: Echinochloa crus-galli, 312 h; Rate 250 g/ha; pre-emergence spray; evaluated after 13 days; read-out: Pre-emergence activity ECHCG (100=total damage to plant; 0=no damage to plant). A digest of the protocol:
as §1

Experiment [3] concerns Lolium perenne (LOLPE). The description is as above. The note with it: Lolium perenne, 312 h; Rate 250 g/ha; pre-emergence spray; evaluated after 13 days; read-out: Pre-emergence activity LOLPE (100=total damage to plant; 0=no damage to plant). A digest of the protocol: as §1
Experiment [4] relates to Alopecurus myosuroides (ALOMY). The experiment is described as above. As to conditions: Alopecurus myosuroides, 312 h; Rate 250 g/ha; pre-emergence spray; evaluated after 13 days; read-out: Pre-emergence activity ALOMY (100=total damage to plant; 0=no damage to plant). A digest of the protocol:
as §1

In experiment [5] the test system is Avena fatua (AVEFA). Kind of experiment: Post-emergence herbicidal activity, glasshouse pot test. The note with it: Avena fatua, 312 h, rate 250 g/ha, evaluated after 13 days, glasshouse, read-out: Post-emergence activity AVEFA (100=total damage to plant; 0=no damage to plant). A digest of the protocol: as §1
Experiment [6] has as its system Echinochloa crus-galli (ECHCG). The description is as above. As to conditions: Echinochloa crus-galli, 312 h, rate 250 g/ha, evaluated after 13 days, glasshouse, read-out: Post-emergence activity ECHCG (100=total damage to plant; 0=no damage to plant). The procedure, abridged: as §1
The subject of experiment [7] is Lolium perenne (LOLPE). The experiment is described as above. As to conditions: Lolium perenne, 312 h, rate 250 g/ha, evaluated after 13 days, glasshouse, read-out: Post-emergence activity LOLPE (100=total damage to plant; 0=no damage to plant). A digest of the protocol: as §1
Experiment [8] relates to Alopecurus myosuroides (ALOMY). The experiment is described as above. As to conditions: Alopecurus myosuroides, 312 h, rate 250 g/ha, evaluated after 13 days, glasshouse, read-out: Post-emergence activity ALOMY (100=total damage to plant; 0=no damage to plant). The procedure, abridged: as §1

As for `CCc1ccc(Oc2ccc(F)cc2)cc1C1=C(O)CCCC1=O` [Example A-29], the pest or weed control at 250 g/ha in experiment [1] came out at 10%; in experiment [2], 40%; in experiment [3] it was 30%; in experiment [4] it was 0%; in experiment [5], 0%; in experiment [6], 70%. Further, the figures for the pest or weed control at 250 g/ha in experiment [7] and in experiment [8] were 10% and 0%, respectively.

For the molecule `CCc1ccc(Oc2ccc(Cl)cc2F)cc1C1=C(O)CC(C)(C)CC1=O` [Example A-30], the pest or weed control at 250 g/ha in experiment [1] is 50%; in experiment [2] it was 80%; in experiment [3], 70%; in experiment [4], 70%; in experiment [5] it was 60%; in experiment [6], 100%. Moreover, the pest or weed control at 250 g/ha in experiment [7] is 60%; in experiment [8], 70%.

`CCc1ccc(Oc2ccc(Cl)c(F)c2)cc1C1=C(O)C(C)(C)OC(C)(C)C1=O` [Example A-31]: the pest or weed control at 250 g/ha stood at 80% in experiment [1]; 100% in experiment [2]; 100% in experiment [3]; 90% in experiment [4]; 80% in experiment [5]; 100% in experiment [6]. Also, the figures for the pest or weed control at 250 g/ha in experiment [7] and in experiment [8] were 100% and 90%, respectively.

Turning to `CCc1ccc(Oc2cccc(Br)c2)cc1C1=C(O)C(C)(C)OC(C)(C)C1=O` [Example A-32], the pest or weed control at 250 g/ha in experiment [1] is 20%; in experiment [2], 90%; in experiment [3], 80%; in experiment [4], 30%; in experiment [5], 20%; in experiment [6], 100%. The pest or weed control at 250 g/ha was found to be 40% in experiment [7] and 30% in experiment [8].

In the case of `CCc1ccc(Oc2ccc(F)cc2Cl)cc1C1=C(O)C(C)(C)OC(C)(C)C1=O` [Example A-33], the pest or weed control at 250 g/ha in experiment [1] was determined as 10%; in experiment [2] it was 90%; in experiment [3] it was 80%; in experiment [4] it was 20%; in experiment [5], 50%; in experiment [6] it was 100%. Further, the pest or weed control at 250 g/ha came out at 50% in experiment [7] and 40% in experiment [8].

Turning to `CCc1ccc(Oc2ccc(C(F)(F)F)cn2)cc1C1=C(O)C(C)(C)OC(C)(C)C1=O` [Example A-34], the pest or weed control at 250 g/ha in experiment [1], in experiment [2], in experiment [3], in experiment [4], in experiment [5] and in experiment [6] was 100% in each case. For the same molecule, the pest or weed control at 250 g/ha in experiment [7] and in experiment [8] was 100% throughout.

Turning to `CCc1ccc(Oc2ccc(F)cc2)cc1C1=C(O)CC2(CCOCC2)CC1=O` [Example A-35], the pest or weed control at 250 g/ha is 70% in experiment [1]; 100% in experiment [2]; 70% in experiment [3]; 90% in experiment [4]; 90% in experiment [5]; 100% in experiment [6]. The pest or weed control at 250 g/ha in experiment [7] and in experiment [8] was 80% in each case.

With `CCc1ccc(Oc2ccc(Cl)cc2)cc1C1=C(O)CC2(CCOCC2)CC1=O` [Example A-36], the pest or weed control at 250 g/ha in experiment [1] amounted to 90%; in experiment [2] it was 100%; in experiment [3] it was 90%; in experiment [4], 90%; in experiment [5] it was 100%; in experiment [6] it was 100%. Besides, the pest or weed control at 250 g/ha in experiment [7] amounted to 90%; in experiment [8] it was 100%.

For the molecule `CCc1ccc(Oc2ccc(Br)cc2)cc1C1=C(O)CC2(CCOCC2)CC1=O` [Example A-37], the pest or weed control at 250 g/ha was found to be 70% in experiment [1]; 100% in experiment [2]; 80% in experiment [3]; 70% in experiment [4]; 100% in experiment [5]; 100% in experiment [6]. Moreover, the pest or weed control at 250 g/ha amounted to 90% in experiment [7] and 100% in experiment [8].

For `CCc1ccc(Oc2ccc(Cl)cc2F)cc1C1=C(O)CCCC1=O` [Example A-38], the pest or weed control at 250 g/ha in experiment [1] came to 10%; in experiment [2], 70%; in experiment [3], 70%; in experiment [4], 50%; in experiment [5], 30%; in experiment [6], 80%. Further, the results for the pest or weed control at 250 g/ha in experiment [7] and in experiment [8] were 30% and 20%, respectively.

With `CCc1ccc(Oc2ccc(F)cc2Cl)cc1C1=C(O)CCCC1=O` [Example A-39], the pest or weed control at 250 g/ha in experiment [1] was found to be 0%; in experiment [2], 40%; in experiment [3], 30%; in experiment [4] it was 30%; in experiment [5] it was 0%; in experiment [6], 70%. Further, the pest or weed control at 250 g/ha in experiment [7] and in experiment [8] was 30% in each case.

Regarding `CCc1ccc(Oc2ccc(Cl)cc2Cl)cc1C1=C(O)CCCC1=O` [Example A-40], the pest or weed control at 250 g/ha in experiment [1] came to 20%; in experiment [2], 80%; in experiment [3], 50%; in experiment [4] it was 50%; in experiment [5], 40%; in experiment [6] it was 90%. For the same molecule, the pest or weed control at 250 g/ha in experiment [7] and in experiment [8] was 30% each time.

For `CCc1ccc(Oc2ccc(Br)cc2)cc1C1=C(O)CCCC1=O` [Example A-41], the pest or weed control at 250 g/ha in experiment [1] amounted to 20%; in experiment [2], 100%; in experiment [3], 60%; in experiment [4], 40%; in experiment [5], 10%; in experiment [6], 90%. The pest or weed control at 250 g/ha in experiment [7] and in experiment [8] was 30% throughout.

`CCc1ccc(Oc2cccc(F)n2)cc1C1=C(O)C(C)(C)OC(C)(C)C1=O` [Example A-43]: the pest or weed control at 250 g/ha is 0% in experiment [1]; 90% in experiment [2]; 10% in experiment [3]; 10% in experiment [4]; 0% in experiment [5]; 70% in experiment [6]. In addition, the results for the pest or weed control at 250 g/ha in experiment [7] and in experiment [8] were 20% and 0%, respectively.

With `CCc1ccc(Oc2ncc(Cl)cc2Cl)cc1C1=C(O)C(C)(C)OC(C)(C)C1=O` [Example A-44], the pest or weed control at 250 g/ha in experiment [1], in experiment [2], in experiment [3], in experiment [4], in experiment [5] and in experiment [6] was 100% each time. Moreover, the pest or weed control at 250 g/ha in experiment [7] and in experiment [8] was 100% throughout.

Take `CCc1ccc(Oc2ncc(C(F)(F)F)cc2Cl)cc1C1=C(O)C(C)(C)OC(C)(C)C1=O` [Example A-45]: the pest or weed control at 250 g/ha in experiment [1], in experiment [2], in experiment [3], in experiment [4], in experiment [5] and in experiment [6] was 100% in each case. In addition, the pest or weed control at 250 g/ha in experiment [7] and in experiment [8] was 100% each time.

Regarding `CCc1ccc(Oc2ccc(Cl)c(F)c2)cc1C1=C(O)CC(C)(C)CC1=O` [Example A-46], the pest or weed control at 250 g/ha came out at 30% in experiment [1]; 90% in experiment [2]; 70% in experiment [3]; 100% in experiment [4]; 50% in experiment [5]; 100% in experiment [6]. In addition, the figures for the pest or weed control at 250 g/ha in experiment [7] and in experiment [8] were 60% and 80%, respectively.
